Where a SMILES comes first, the peptide text is derived from it.
What was measured:
human fibroblasts = assay type: cell-based; conditions: 48 h, 200 μg/mL
Experimental: The active polypeptide of the present application with a sequence of EMHKMEPCPMYRRHLG was serially diluted in a 96-well cell culture plate to 5, 10, 25, 50, 100, 200 μg/mL, with 5 duplicated wells per concentration. The above operations were all performed under sterile conditions.
For the passage of the cell lines isolated in Example 1, the cell culture medium was firstly poured out, and the cells were washed twice with 2 mL of PBS. The liquid was discarded, and 1 mL of 0.25% (mass fraction) trypsin solution was added for digestion for 3 min until the cells were completely detached. […] The cell solution was adjusted to a concentration of 5.0×10^5 cells/mL and cultured at 37° C. under 5% carbon dioxide and saturated humidity conditions. After 24 h of passaging, the cells were used for pharmacological activity assay. The above operations were all performed under sterile conditions.
The cells were inoculated into a 96-well cell culture plate, with 100 μL per well, and incubated at 37° C. under 5% carbon dioxide and saturated humidity conditions. […] The absorbance was determined at 570 nm by a microplate reader, with 630 nm as a reference wavelength. The results were recorded and the cell viability was calculated according to the following formula: cell viability=(absorbance A570 of the experimental group/absorbance A570 of the blank control group)×100%.

mice = test: General chronic toxicology study in mice; assay type: in vivo; conditions: duration ≥6 months, ICH S4 guidelines
Source text: The Fmoc polypeptide synthesis method is a conventional method used by a person skilled in the art to prepare a polypeptide. In the case that a person skilled in the art knows that the polypeptide to be prepared needs to comprise an amino acid sequence as shown in EMHKMEPCPMYRRHLG, in combination with the existing Fmoc polypeptide synthesis method, the polypeptide to be protected in the present application may be obtained.

For `CSCC[C@H](NC(=O)[C@H](CCCCN)NC(=O)[C@H](Cc1c[nH]cn1)NC(=O)[C@H](CCSC)NC(=O)[C@@H](N)CCC(=O)O)C(=O)N[C@@H](CCC(=O)O)C(=O)N1CCC[C@H]1C(=O)N[C@@H](CS)C(=O)N1CCC[C@H]1C(=O)N[C@@H](CCSC)C(=O)N[C@@H](Cc1ccc(O)cc1)C(=O)N[C@@H](CCCNC(=N)N)C(=O)N[C@@H](CCCNC(=N)N)C(=O)N[C@@H](Cc1c[nH]cn1)C(=O)N[C@@H](CC(C)C)C(=O)NCC(=O)O` [active polypeptide, EMHKMEPCPMYRRHLG] (H-EMHKMEPCPMYRRHLG-OH), the cell viability (human fibroblasts) was 265.3%±4.52 and the “toxic side effects in general chronic toxicology study” value (mice) was “no significant toxic side effects”.
